Measurements taken from US10806785B2, “Immunomodulator compounds and methods of use” (Incyte Corporation, priority 2016, dated 2020).

The compounds below were run against PD-1/PD-L1 (Homo sapiens (Human), UniProt Q9NZQ7) (assay: PD-1/PD-L1 binding assay (HTRF)).
Method: The assays were conducted in a standard black 384-well polystyrene plate with a final volume of 20 μL. Inhibitors were first serially diluted in DMSO and then added to the plate wells before the addition of other reaction components. The final concentration of DMSO in the assay was 1%. The assays were carried out at 25° C. in the PBS buffer (pH 7.4) with 0.05% Tween-20 and 0.1% BSA. Recombinant human PD-L1 protein (19-238) with a His-tag at the C-terminus was purchased from AcroBiosystems (PD1-H5229). Recombinant human PD-1 protein (25-167) with Fc tag at the C-terminus was also purchased from AcroBiosystems (PD1-H5257). PD-L1 and PD-1 proteins were diluted in the assay buffer and 10 μL was added to the plate well. Plates were centrifuged and proteins were preincubated with inhibitors for 40 minutes. The incubation was followed by the addition of 10 μL of HTRF detection buffer supplemented with Europium cryptate-labeled anti-human IgG (PerkinElmer-AD0212) specific for Fc and anti-His antibody conjugated to SureLight®-Allophycocyanin (APC, PerkinElmer-AD0059H). After centrifugation, the plate was incubated at 25° C. for 60 min. before reading on a PHERAstar FS plate reader (665 nm/620 nm ratio). Final concentrations in the assay were […], 10 nM PD-L1, 1 nM europium anti-human IgG and 20 nM anti-His-Allophycocyanin. IC50 determination was performed by fitting the curve of percent control activity versus the log of the inhibitor concentration using the GraphPad Prism 5.0 software.

Sequence of PD-1/PD-L1 (Q9NZQ7 19-238): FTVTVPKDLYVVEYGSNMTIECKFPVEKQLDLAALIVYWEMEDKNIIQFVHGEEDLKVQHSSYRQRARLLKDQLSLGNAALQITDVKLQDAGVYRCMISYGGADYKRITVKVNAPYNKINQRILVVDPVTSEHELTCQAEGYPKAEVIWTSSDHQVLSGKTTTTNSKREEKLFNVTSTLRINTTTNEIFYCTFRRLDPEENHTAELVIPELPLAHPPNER

| IC50 [nM] | SMILES |
| --- | --- |
| ≤ 10 | Cc1c(NC(=O)c2nc3c(n2C)CCN(C2CCOCC2)C3)cccc1-c1cccc(NC(=O)c2nc3c(n2C)CCN(CCc2ccc(C(=O)O)cc2)C3)c1Cl [Example 124, 4-(2-(2-((2-chloro-2′-methyl-3′-(1-methyl-5-(tetrahydro-2H-pyran-4-yl)-4,5,6,7-tetrahydro-1H-imidazo[4,5-c]pyridine-2-carboxamido)-[1,1′-biphenyl]-3-yl)carbamoyl)-1-methyl-1,4,6,7-tetrahydro-5H-imidazo[4,5-c]pyridin-5-yl)ethyl)benzoic acid] |
| ≤ 10 | CCC1(C(=O)O)CCC(N2CCc3c(nc(C(=O)Nc4cccc(-c5cccc(NC(=O)c6nc7c(n6C)CCN(C6CCOCC6)C7)c5Cl)c4C)n3C)C2)CC1 (stereo not shown) [Example 112, 4-(2-((2′-chloro-2-methyl-3′-(1-methyl-5-(tetrahydro-2H-pyran-4-yl)-4,5,6,7-tetrahydro-1H-imidazo[4,5-c]pyridine-2-carboxamido)-[1,1′-biphenyl]-3-yl)carbamoyl)-1-methyl-1,4,6,7-tetrahydro-5H-imidazo[4,5-c]pyridin-5-yl)-1-ethylcyclohexane-1-carboxylic acid] |
| ≤ 10 | Cc1c(NC(=O)c2nc3c(n2C)CCN(C(C)C)C3)cccc1-c1cccc(NC(=O)c2nc3c(n2C)CCN(CC[C@H]2CC[C@H](C(=O)O)CC2)C3)c1Cl [Example 129, trans-4-(2-(2-((2-chloro-3′-(5-isopropyl-1-methyl-4,5,6,7-tetrahydro-1H-imidazo[4,5-c]pyridine-2-carboxamido)-2′-methyl-[1,1′-biphenyl]-3-yl)carbamoyl)-1-methyl-1,4,6,7-tetrahydro-5H-imidazo[4,5-c]pyridin-5-yl)ethyl)cyclohexane-1-carboxylic acid] |
| ≤ 10 | CN1CCc2c(nc(C(=O)Nc3cccc(-c4cccc(NC(=O)c5nc6c(n5C)CCN(CCC5CCC(C(=O)O)CC5)C6)c4Cl)c3Cl)n2C)C1 (stereo not shown) [Compound 77-1, 4-(2-(2-((2,2′-dichloro-3′-(1,5-dimethyl-4,5,6,7-tetrahydro-1H-imidazo[4,5-c]pyridine-2-carboxamido)-[1,1′-biphenyl]-3-yl)carbamoyl)-1-methyl-1,4,6,7-tetrahydro-5H-imidazo[4,5-c]pyridin-5-yl)ethyl)cyclohexane-1-carboxylic acid] |
| ≤ 10 | CCC1(C(=O)O)CCC(N2CCc3c(nc(C(=O)Nc4cccc(-c5cccc(NC(=O)c6nc7c(n6C)CCN(C)C7)c5Cl)c4C)n3C)C2)CC1 (stereo not shown) [Example 104, 4-(2-((2′-chloro-3′-(1,5-dimethyl-4,5,6,7-tetrahydro-1H-imidazo[4,5-c]pyridine-2-carboxamido)-2-methyl-[1,1′-biphenyl]-3-yl)carbamoyl)-1-methyl-1,4,6,7-tetrahydro-5H-imidazo[4,5-c]pyridin-5-yl)-1-ethylcyclohexane-1-carboxylic acid] |
| ≤ 10 | CN1CCc2c(nc(C(=O)Nc3cccc(-c4cccc(NC(=O)c5nc6c(n5C)CCN(C5CCC(C)(C(=O)O)CC5)C6)c4Cl)c3Cl)n2C)C1 (stereo not shown) [Example 80, 4-(2-((2,2′-dichloro-3′-(1,5-dimethyl-4,5,6,7-tetrahydro-1H-imidazo[4,5-c]pyridine-2-carboxamido)-[1,1′-biphenyl]-3-yl)carbamoyl)-1-methyl-1,4,6,7-tetrahydro-5H-imidazo[4,5-c]pyridin-5-yl)-1-methylcyclohexane-1-carboxylic acid] |
| 10 to 100 | Cn1c(C(=O)Nc2cccc(-c3cccc(NC(=O)c4nc5c(n4C)CCN(C4CCOCC4)C5)c3Cl)c2Cl)nc2c1CCN(CC13CCC(C(=O)O)(CC1)C3)C2 [Compound 179, 4-((2-(2,2′-dichloro-3′-(1-methyl-5-(tetrahydro-2H-pyran-4-yl)-4,5,6,7-tetrahydro-1H-imidazo[4,5-c]pyridine-2-carboxamido)biphenyl-3-ylcarbamoyl)-1-methyl-6,7-dihydro-1H-imidazo[4,5-c]pyridin-5(4H)-yl)methyl)bicyclo[2.2.1]heptane-1-carboxylic acid] |
| ≤ 10 | Cc1c(NC(=O)c2nc3c(n2C)CCN(C[C@H](C)O)C3)cccc1-c1cccc(NC(=O)c2nc3c(n2C)CCN(C2CCN(S(C)(=O)=O)CC2)C3)c1Cl [Example 43, (S)—N-(2′-chloro-2-methyl-3′-(1-methyl-5-(1-(methylsulfonyl)piperidin-4-yl)-4,5,6,7-tetrahydro-1H-imidazo[4,5-c]pyridine-2-carboxamido)biphenyl-3-yl)-5-(2-hydroxypropyl)-1-methyl-4,5,6,7-tetrahydro-1H-imidazo[4,5-c]pyridine-2-carboxamide] |
| ≤ 10 | CCN1CCc2c(nc(C(=O)Nc3cccc(-c4cccc(NC(=O)c5nc6c(n5C)CCN(CC[C@H]5CC[C@H](C(=O)O)CC5)C6)c4Cl)c3C)n2C)C1 [Example 127, trans-4-(2-(2-((2-chloro-3′-(5-ethyl-1-methyl-4,5,6,7-tetrahydro-1H-imidazo[4,5-c]pyridine-2-carboxamido)-2′-methyl-[1,1′-biphenyl]-3-yl)carbamoyl)-1-methyl-1,4,6,7-tetrahydro-5H-imidazo[4,5-c]pyridin-5-yl)ethyl)cyclohexane-1-carboxylic acid] |
| ≤ 10 | Cc1c(NC(=O)c2nc3c(n2C)CCN(CCc2ccc(C(=O)O)cc2)C3)cccc1-c1cccc(NC(=O)c2nc3c(n2C)CCN(C)C3)c1Cl [Example 101, 4-(2-(2-((2′-chloro-3′-(1,5-dimethyl-4,5,6,7-tetrahydro-1H-imidazo[4,5-c]pyridine-2-carboxamido)-2-methyl-[1,1′-biphenyl]-3-yl)carbamoyl)-1-methyl-1,4,6,7-tetrahydro-5H-imidazo[4,5-c]pyridin-5-yl)ethyl)benzoic acid] |

Second part, the compound before the results:

| SMILES | IC50 [nM] |
| --- | --- |
| CCN1CCc2c(nc(C(=O)Nc3cccc(-c4cccc(NC(=O)c5nc6c(n5C)CCN(CC[C@H]5CC[C@H](C(=O)O)CC5)C6)c4Cl)c3C#N)n2C)C1 [Compound 151, trans-4-(2-(2-((2-chloro-2′-cyano-3′-(5-ethyl-1-methyl-4,5,6,7-tetrahydro-1H-imidazo[4,5-c]pyridine-2-carboxamido)-[1,1′-biphenyl]-3-yl)carbamoyl)-1-methyl-1,4,6,7-tetrahydro-5H-imidazo[4,5-c]pyridin-5-yl)ethyl)cyclohexane-1-carboxylic acid] | ≤ 10 |
| Cn1c(C(=O)Nc2cccc(-c3cccc(NC(=O)c4nc5c(n4C)CCN(CC46CCC(C(=O)O)(CC4)C6)C5)c3Cl)c2Cl)nc2c1CCN(CCO)C2 [Compound 180, 4-((2-(2,2′-dichloro-3′-(5-(2-hydroxyethyl)-1-methyl-4,5,6,7-tetrahydro-1H-imidazo[4,5-c]pyridine-2-carboxamido)biphenyl-3-ylcarbamoyl)-1-methyl-6,7-dihydro-1H-imidazo[4,5-c]pyridin-5(4H)-yl)methyl)bicyclo[2.2.1]heptane-1-carboxylic acid] | ≤ 10 |
| Cc1c(NC(=O)c2nc3c(n2C)CCN(C[C@H](C)O)C3)cccc1-c1cccc(NC(=O)c2nc3c(n2C)CCNC3)c1Cl [Example 41, (S)—N-(2′-chloro-2-methyl-3′-(1-methyl-4,5,6,7-tetrahydro-1H-imidazo[4,5-c]pyridine-2-carboxamido)-[1,1′-biphenyl]-3-yl)-5-(2-hydroxypropyl)-1-methyl-4,5,6,7-tetrahydro-1H-imidazo[4,5-c]pyridine-2-carboxamide] | ≤ 10 |
| C[C@@H](O)CN1CCc2c(nc(C(=O)Nc3cccc(-c4cccc(NC(=O)c5nc6c(n5C)CCN(C[C@H]5CC[C@@H](C(=O)O)CC5)C6)c4Cl)c3Cl)n2C)C1 [Example 76, cis-4-((2-((2,2′-dichloro-3′-(5-((R)-2-hydroxypropyl)-1-methyl-4,5,6,7-tetrahydro-1H-imidazo[4,5-c]pyridine-2-carboxamido)-[1,1′-biphenyl]-3-yl)carbamoyl)-1-methyl-1,4,6,7-tetrahydro-5H-imidazo[4,5-c]pyridin-5-yl)methyl)cyclohexane-1-carboxylic acid] | ≤ 10 |
| CCN1CCc2c(nc(C(=O)Nc3cccc(-c4cccc(NC(=O)c5nc6c(n5C)CCN(C[C@H]5CC[C@@H](C(=O)O)CC5)C6)c4Cl)c3Cl)n2C)C1 [Example 70, cis-4-((2-((2,2′-dichloro-3′-(5-ethyl-1-methyl-4,5,6,7-tetrahydro-1H-imidazo[4,5-c]pyridine-2-carboxamido)-[1,1′-biphenyl]-3-yl)carbamoyl)-1-methyl-1,4,6,7-tetrahydro-5H-imidazo[4,5-c]pyridin-5-yl)methyl)cyclohexane-1-carboxylic acid] | ≤ 10 |
| C[C@@H](O)CN1CCc2c(nc(C(=O)Nc3cccc(-c4cccc(NC(=O)c5nc6c(n5C)CCN(CC[C@H]5CC[C@H](C(=O)O)CC5)C6)c4Cl)c3Cl)n2C)C1 [Example 95, trans-4-(2-(2-((2,2′-dichloro-3′-(5-((R)-2-hydroxypropyl)-1-methyl-4,5,6,7-tetrahydro-1H-imidazo[4,5-c]pyridine-2-carboxamido)-[1,1′-biphenyl]-3-yl)carbamoyl)-1-methyl-1,4,6,7-tetrahydro-5H-imidazo[4,5-c]pyridin-5-yl)ethyl)cyclohexane-1-carboxylic acid] | ≤ 10 |
